Patent publication US20240000707A1, “INHALABLE DRY POWDER FORMULATIONS COMPRISING ANGIOGENESIS INHIBITORS” (Lonza Bend Inc., priority 2020, published 2024)

Tested on: NSCLC cell line Calu-3
Assay: Orthotopic nude rat model for lung cancer, inhaled vs IP bevacizumab, primary and maintenance treatment
Assay type: in vivo
Conditions: week 8; INH 1.5 mg/kg deposited vs IP 15 mg/kg; cisplatin IP 3 mg/kg
Protocol: NSCLC cell line Calu-3 was instilled into the lungs of X-irradiated rats by an intratracheal route, targeting […] cells per installation. For the first four weeks of the study, no treatment was administered, allowing growth of the tumor cells. Inhaled bevacizumab SDD was evaluated as a primary treatment as well as a maintenance therapy.
Cisplatin was administered by IP at 3 mg/kg. Powder was aerosolized using a rotating brush generator and delivered to the rats passively through nasal inhalation. […] Groups 1-4 were evaluated for primary efficacy after 8 weeks with lung weight as the end point. Groups 5-7 were evaluated for maintenance efficacy after 12 weeks with lung weight and survival as the end point.

## Bevacizumab [IP bevacizumab]
  tumor burden, co-administered with cisplatin, inhaled vs IP bevacizumab: indistinguishable, and significantly lower than group 1 and 3
